Values quoted from earlier work, collected in patent US12714758B2, “DOTA-hapten compositions for anti-DOTA/anti-tumor antigen bispecific antibody pretargeted radioimmunotherapy” (Memorial Sloan Kettering Cancer Center, priority 2020, dated 2026).

System: GD2
Details: 24 hours post-injection

- blood uptake: 0.49±0.09 % ID/g
- kidney uptake: 0.83±0.10 % ID/g
- tumor uptake (average±SD, n=5): 10.29±2.87 % ID/g
Substance: ^177Lu-S-2-(4-aminobenzyl)-1,4,7,10-tetraazacyclododecane tetraacetic acid chelate [^177Lu-DOTA-Bn]
